Results published in article PMC10629583, “Specific inhibition of an anticancer target, polo-like kinase 1, by allosterically dismantling its mechanism of substrate recognition” (Proceedings of the National Academy of Sciences of the …, 2023).

What was measured:
Experiment in all cases: PDSP off-target binding screen
Conditions in all cases: for inhibition at 10 µM: read-out: Primary screen AVE(%inhib)±SD; for Ki: read-out: Secondary screen Ki
[1] = biological target: T1, 5-HT1A (Homo sapiens, UniProt P08908)
T1 construct: NIMH Psychoactive Drug Screening Program (UNC)
T1 sequence (P08908 1-422): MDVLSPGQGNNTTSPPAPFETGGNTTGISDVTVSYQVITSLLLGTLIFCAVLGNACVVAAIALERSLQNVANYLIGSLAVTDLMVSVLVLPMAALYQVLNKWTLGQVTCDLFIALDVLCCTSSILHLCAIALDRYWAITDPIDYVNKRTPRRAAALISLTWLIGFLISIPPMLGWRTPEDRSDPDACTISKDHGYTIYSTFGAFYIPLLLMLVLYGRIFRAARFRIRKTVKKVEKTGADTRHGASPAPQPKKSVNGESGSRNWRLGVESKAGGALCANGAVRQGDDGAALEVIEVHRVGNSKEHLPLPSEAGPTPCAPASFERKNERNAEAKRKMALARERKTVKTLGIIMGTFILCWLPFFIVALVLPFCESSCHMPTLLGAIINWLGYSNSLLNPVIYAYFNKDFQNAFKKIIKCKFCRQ
Text: (§1) PDSP no. Compound Interactions (Ki, µM)
(§2) 60477 Allopole-A None observed.
(§3) trigger a secondary screen at that receptor.

[2] = biological target: T2, Alpha1B (Homo sapiens, UniProt P35368)
T2 sequence (P35368 1-520): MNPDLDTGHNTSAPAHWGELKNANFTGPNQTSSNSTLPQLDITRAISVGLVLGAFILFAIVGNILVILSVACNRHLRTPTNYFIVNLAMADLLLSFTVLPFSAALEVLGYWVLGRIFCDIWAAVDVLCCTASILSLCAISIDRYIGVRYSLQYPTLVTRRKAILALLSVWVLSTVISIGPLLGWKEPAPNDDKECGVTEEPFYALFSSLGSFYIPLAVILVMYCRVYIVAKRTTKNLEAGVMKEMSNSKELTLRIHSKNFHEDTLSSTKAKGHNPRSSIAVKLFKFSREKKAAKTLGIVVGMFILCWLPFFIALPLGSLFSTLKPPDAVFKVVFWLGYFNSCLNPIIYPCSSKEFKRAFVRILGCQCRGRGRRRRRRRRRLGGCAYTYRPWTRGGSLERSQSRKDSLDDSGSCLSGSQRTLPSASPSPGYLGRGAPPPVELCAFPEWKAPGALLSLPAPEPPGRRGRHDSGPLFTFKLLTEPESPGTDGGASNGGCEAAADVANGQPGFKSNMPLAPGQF
Text: as §1, §2, §3

[3] = biological target: T3, Alpha2A (Homo sapiens, UniProt P08913)
T3 sequence (P08913 1-465): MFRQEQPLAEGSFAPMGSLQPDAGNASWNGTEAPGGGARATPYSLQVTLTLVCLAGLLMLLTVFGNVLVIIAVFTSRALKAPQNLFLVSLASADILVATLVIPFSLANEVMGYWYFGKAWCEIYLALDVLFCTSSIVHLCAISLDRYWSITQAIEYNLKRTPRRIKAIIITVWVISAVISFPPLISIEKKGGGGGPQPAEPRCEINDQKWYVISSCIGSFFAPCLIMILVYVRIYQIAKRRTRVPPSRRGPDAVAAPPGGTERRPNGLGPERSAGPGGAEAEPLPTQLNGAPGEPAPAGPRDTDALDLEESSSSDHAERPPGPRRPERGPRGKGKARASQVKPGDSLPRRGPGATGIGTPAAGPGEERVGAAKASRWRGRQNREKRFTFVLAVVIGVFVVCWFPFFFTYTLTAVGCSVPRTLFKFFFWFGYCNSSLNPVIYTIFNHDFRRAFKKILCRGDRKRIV
Text: as §1, §2, §3

[4] = biological target: T4, Alpha2B (Homo sapiens, UniProt P18089)
T4 sequence (P18089 1-450): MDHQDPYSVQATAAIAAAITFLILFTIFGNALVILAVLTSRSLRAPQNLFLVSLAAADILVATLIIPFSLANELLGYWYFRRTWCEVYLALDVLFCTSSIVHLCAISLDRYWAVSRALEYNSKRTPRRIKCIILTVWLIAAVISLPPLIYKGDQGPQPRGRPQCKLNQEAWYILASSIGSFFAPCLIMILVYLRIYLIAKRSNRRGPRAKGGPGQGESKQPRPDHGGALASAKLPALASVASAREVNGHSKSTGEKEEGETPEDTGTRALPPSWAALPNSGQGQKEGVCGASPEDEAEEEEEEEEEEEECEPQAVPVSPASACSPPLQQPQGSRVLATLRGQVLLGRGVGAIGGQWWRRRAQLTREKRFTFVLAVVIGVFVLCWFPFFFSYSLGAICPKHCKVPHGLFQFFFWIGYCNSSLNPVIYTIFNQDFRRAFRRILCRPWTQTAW
Text: as §1, §2, §3

[5] = biological target: H1 (Homo sapiens, UniProt P35367)
Text: as §1, §2, §3

[6] = biological target: T5, M5 (Homo sapiens, UniProt P08912)
T5 sequence (P08912 1-532): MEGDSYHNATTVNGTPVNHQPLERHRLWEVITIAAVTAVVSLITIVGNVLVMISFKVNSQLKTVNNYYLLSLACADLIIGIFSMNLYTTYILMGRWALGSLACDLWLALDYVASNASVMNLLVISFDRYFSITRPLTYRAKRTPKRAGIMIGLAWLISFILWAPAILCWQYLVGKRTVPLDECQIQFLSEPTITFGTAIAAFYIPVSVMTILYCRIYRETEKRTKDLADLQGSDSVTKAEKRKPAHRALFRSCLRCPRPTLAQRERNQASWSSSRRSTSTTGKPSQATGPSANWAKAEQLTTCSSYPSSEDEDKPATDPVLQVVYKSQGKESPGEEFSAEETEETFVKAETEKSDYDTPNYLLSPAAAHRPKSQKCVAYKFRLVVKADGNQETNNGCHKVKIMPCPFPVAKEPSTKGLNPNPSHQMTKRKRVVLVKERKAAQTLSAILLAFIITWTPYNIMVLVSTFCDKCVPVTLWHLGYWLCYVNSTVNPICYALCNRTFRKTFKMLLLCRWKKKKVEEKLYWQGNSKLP
Text: as §1, §2, §3

H1, sequence (P35367 whole entry): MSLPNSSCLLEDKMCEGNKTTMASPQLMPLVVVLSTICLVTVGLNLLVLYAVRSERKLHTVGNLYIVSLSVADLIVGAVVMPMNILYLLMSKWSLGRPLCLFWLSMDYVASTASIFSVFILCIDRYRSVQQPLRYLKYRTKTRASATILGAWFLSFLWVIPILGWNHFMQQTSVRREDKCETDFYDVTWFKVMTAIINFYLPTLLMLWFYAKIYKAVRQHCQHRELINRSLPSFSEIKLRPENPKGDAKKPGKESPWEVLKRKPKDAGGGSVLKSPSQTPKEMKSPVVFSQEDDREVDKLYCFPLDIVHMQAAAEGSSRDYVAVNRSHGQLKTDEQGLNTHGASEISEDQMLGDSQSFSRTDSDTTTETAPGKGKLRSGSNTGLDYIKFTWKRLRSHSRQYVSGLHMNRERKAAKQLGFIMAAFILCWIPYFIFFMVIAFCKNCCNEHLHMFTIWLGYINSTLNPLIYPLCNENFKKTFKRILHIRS

In the case of `Cn1cnc([N+](=O)[O-])c1Sc1nnc2n(CC3CC3)c(=O)c3sc(Cl)cc3n12` [Allopole], the inhibition at 10 µM [1] is reported as -12.8 ± 19.7%, the Ki [1] is reported as > 10 µM and the inhibition at 10 µM [2] is reported as -1.6 ± 9.5%. The Ki [2] was > 10 µM, the inhibition at 10 µM [3] was 9.4 ± 4.6% and the Ki [3] was > 10 µM. The inhibition at 10 µM [4] was 8.3 ± 16.4%, the Ki [4] was > 10 µM and the inhibition at 10 µM [5] was 35.8 ± 11.9%. For the same compound, the Ki [5] was > 10 µM, the inhibition at 10 µM [6] was 95 ± 7.4% and the Ki [6] was > 10 µM.
In the case of `O=c1c2sc(Cl)cc2n2c(=S)[nH]nc2n1CC1CC1` [Allopole-A], the inhibition at 10 µM [1] is reported as -20 ± 27.4%, the Ki [1] is reported as > 10 µM and the inhibition at 10 µM [2] is reported as -7.7 ± 9.7%. The Ki [2] was > 10 µM, the inhibition at 10 µM [3] was -6.3 ± 7.9% and the Ki [3] was > 10 µM. The inhibition at 10 µM [4] was -6.4 ± 7.1%, the Ki [4] was > 10 µM and the inhibition at 10 µM [5] was 11.5 ± 2.8%. For the same compound, the Ki [5] was > 10 µM, the inhibition at 10 µM [6] was 130 ± 3% and the Ki [6] was > 10 µM.
